# Article PMC11456916, “A screen for cell envelope stress uncovers an inhibitor of prolipoprotein diacylglyceryl transferase, Lgt, in Escherichiacoli” (iScience, 2024)
# Tested on: 356 CRISPRi constructs in E. coli ΔtolC-pore
# Assay: CRISPRi collection fitness screen with sub-inhibitory compound
# Type: cell-based
# Conditions: for Growth represented as mean colony biomass: 1μg/ml MAC0452936, 6ng/ml LolCDE-in-1, 250 ng/ml Vancomycin, 7 ng/ml CHIR090, n=4; for Growth, mean colony biomass (n=4): + 1μg/ml MAC0452936
# How it was run: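 Mobile CRISPRi collection conjugated into the ΔtolC-pore strain and pinned on agar at 1536 density in technical quadruplicate with a sub-inhibitory MAC-0452936 concentration. No CRISPRi induction; only basal 5–10% knockdown.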
compound,measurement,setting,value
COc1ccc(C(=O)O/N=C(\c2cccs2)C(C)(C)C)cc1 [MAC0452936],Growth represented as mean colony biomass,gRNA accA,0.9619
same,"Growth, mean colony biomass (n=4)",gRNA aceF,1.536
same,"Growth, mean colony biomass (n=4)",gRNA alaS,1.17
same,"Growth, mean colony biomass (n=4)",gRNA argS,1.078
same,"Growth, mean colony biomass (n=4)",gRNA asnS,1.097
same,"Growth, mean colony biomass (n=4)",gRNA bamA,1.082
same,"Growth, mean colony biomass (n=4)",gRNA bamD,1.114
same,"Growth, mean colony biomass (n=4)",gRNA bioA,1.093
same,"Growth, mean colony biomass (n=4)",gRNA can,1.0791
same,Growth represented as mean colony biomass,gRNA cca,0.9631
same,Growth represented as mean colony biomass,gRNA coaA,0.9606
same,"Growth, mean colony biomass (n=4)",gRNA csrA,1.147
same,Growth represented as mean colony biomass,gRNA cydA,0.9568
same,Growth represented as mean colony biomass,gRNA cydX,0.9584
same,Growth represented as mean colony biomass,gRNA dapD,0.9537
same,Growth represented as mean colony biomass,gRNA dapE,0.9829
same,Growth represented as mean colony biomass,gRNA der,0.8304
same,Growth represented as mean colony biomass,gRNA dfp,0.9766
same,"Growth, mean colony biomass (n=4)",gRNA dnaC,1.0695
same,Growth represented as mean colony biomass,gRNA dnaE,0.9743
same,Growth represented as mean colony biomass,gRNA dnaN,0.9941
same,Growth represented as mean colony biomass,gRNA dnaX,0.9797
same,"Growth, mean colony biomass (n=4)",gRNA dut,1.096
same,Growth represented as mean colony biomass,gRNA eno,0.9696
same,Growth represented as mean colony biomass,gRNA era,0.9809
same,Growth represented as mean colony biomass,gRNA fabA,0.9981
same,Growth represented as mean colony biomass,gRNA fabG,0.9894
same,Growth represented as mean colony biomass,gRNA fabI,0.9716
same,Growth represented as mean colony biomass,gRNA fdx,0.9955
same,Growth represented as mean colony biomass,gRNA fldA,0.9924
same,"Growth, mean colony biomass (n=4)",gRNA folA,1.134
same,Growth represented as mean colony biomass,gRNA folB,0.9792
same,"Growth, mean colony biomass (n=4)",gRNA folC,1.076
same,Growth represented as mean colony biomass,gRNA folE,0.9726
same,Growth represented as mean colony biomass,gRNA folP,0.9946
same,Growth represented as mean colony biomass,gRNA frr,0.9805
same,"Growth, mean colony biomass (n=4)",gRNA ftsA,1.121
same,Growth represented as mean colony biomass,gRNA gapA,0.983
same,"Growth, mean colony biomass (n=4)",gRNA glmS,1.092
same,Growth represented as mean colony biomass,gRNA glmU,0.9808
same,Growth represented as mean colony biomass,gRNA gltX,0.9823
same,"Growth, mean colony biomass (n=4)",gRNA glyA,1.091
same,Growth represented as mean colony biomass,gRNA groS,0.9881
same,Growth represented as mean colony biomass,gRNA grpE,0.9656
same,Growth represented as mean colony biomass,gRNA guaA,0.9795
same,"Growth, mean colony biomass (n=4)",gRNA hemD,1.079
same,Growth represented as mean colony biomass,gRNA hemG,0.9986
same,Growth represented as mean colony biomass,gRNA hemH,1.001
same,Growth represented as mean colony biomass,gRNA hemL,0.9838
same,Growth represented as mean colony biomass,gRNA higA,0.9635
same,Growth represented as mean colony biomass,gRNA hisS,0.9859
same,Growth represented as mean colony biomass,gRNA holD,0.9764
same,Growth represented as mean colony biomass,gRNA hscA,0.9953
same,"Growth, mean colony biomass (n=4)",gRNA infA,1.088
same,Growth represented as mean colony biomass,gRNA infC,0.9986
same,Growth represented as mean colony biomass,gRNA iscU,0.9867
same,Growth represented as mean colony biomass,gRNA ispB,0.9983
same,Growth represented as mean colony biomass,gRNA ispF,0.9875
same,"Growth, mean colony biomass (n=4)",gRNA leuS,1.417
same,"Growth, mean colony biomass (n=4)",gRNA lexA,1.542
same,Growth represented as mean colony biomass,gRNA lolC,0.9579
same,"Growth, mean colony biomass (n=4)",gRNA lptA,1.476
same,"Growth, mean colony biomass (n=4)",gRNA lptB,1.32
same,Growth represented as mean colony biomass,gRNA lptC,0.9585
same,Growth represented as mean colony biomass,gRNA lptE,0.965
same,Growth represented as mean colony biomass,gRNA lptF,0.9902
same,Growth represented as mean colony biomass,gRNA lptG,0.9845
same,Growth represented as mean colony biomass,gRNA lpxC,0.9609
same,Growth represented as mean colony biomass,gRNA lpxD,0.9569
same,"Growth, mean colony biomass (n=4)",gRNA mnmA,1.086
same,"Growth, mean colony biomass (n=4)",gRNA mrdB,1.167
same,Growth represented as mean colony biomass,gRNA mreB,0.9936
same,Growth represented as mean colony biomass,gRNA mreC,0.9829
same,"Growth, mean colony biomass (n=4)",gRNA msbA,1.264
same,"Growth, mean colony biomass (n=4)",gRNA mukF,1.116
same,Growth represented as mean colony biomass,gRNA murB,0.9708
same,Growth represented as mean colony biomass,gRNA murC,0.97
same,"Growth, mean colony biomass (n=4)",gRNA murI,1.3051
same,"Growth, mean colony biomass (n=4)",gRNA nadK,1.081
same,Growth represented as mean colony biomass,gRNA nusB,0.9578
same,Growth represented as mean colony biomass,gRNA plsB,0.995
same,"Growth, mean colony biomass (n=4)",gRNA prmC,1.083
same,Growth represented as mean colony biomass,gRNA proS,0.9787
same,"Growth, mean colony biomass (n=4)",gRNA psd,1.711
same,"Growth, mean colony biomass (n=4)",gRNA pssA,1.089
same,"Growth, mean colony biomass (n=4)",gRNA ptsI,1.104
same,Growth represented as mean colony biomass,gRNA racR,0.9926
same,"Growth, mean colony biomass (n=4)",gRNA rho,1.226
same,Growth represented as mean colony biomass,gRNA ribA,0.9923
same,Growth represented as mean colony biomass,gRNA ribC,0.9978
same,"Growth, mean colony biomass (n=4)",gRNA ribD,1.096
same,Growth represented as mean colony biomass,gRNA ribF,0.9646
same,Growth represented as mean colony biomass,gRNA rimM,0.9609
same,Growth represented as mean colony biomass,gRNA rluD,0.9905
same,"Growth, mean colony biomass (n=4)",gRNA rne,1.098
same,Growth represented as mean colony biomass,gRNA rpe,0.9763
same,"Growth, mean colony biomass (n=4)",gRNA rplA,1.0727
same,Growth represented as mean colony biomass,gRNA rplD,0.8324
same,Growth represented as mean colony biomass,gRNA rplE,0.9904
same,Growth represented as mean colony biomass,gRNA rplJ,0.9775
same,Growth represented as mean colony biomass,gRNA rplO,0.9724
same,"Growth, mean colony biomass (n=4)",gRNA rplP,1.071
same,Growth represented as mean colony biomass,gRNA rplQ,0.9778
same,Growth represented as mean colony biomass,gRNA rplS,0.9888
same,"Growth, mean colony biomass (n=4)",gRNA rplV,1.1552
same,"Growth, mean colony biomass (n=4)",gRNA rplX,1.077
same,Growth represented as mean colony biomass,gRNA rplY,0.9853
same,"Growth, mean colony biomass (n=4)",gRNA rpmC,1.078
same,Growth represented as mean colony biomass,gRNA rpmH,0.9594
same,Growth represented as mean colony biomass,gRNA rpmI,1.001
same,"Growth, mean colony biomass (n=4)",gRNA rpoC,1.115
same,"Growth, mean colony biomass (n=4)",gRNA rpoE,1.071
same,Growth represented as mean colony biomass,gRNA rpoH,0.994
same,"Growth, mean colony biomass (n=4)",gRNA rpsC,1.101
same,"Growth, mean colony biomass (n=4)",gRNA rpsD,1.173
same,Growth represented as mean colony biomass,gRNA rpsE,0.8351
same,Growth represented as mean colony biomass,gRNA rpsF,0.9675
same,"Growth, mean colony biomass (n=4)",gRNA rpsG,1.126
same,Growth represented as mean colony biomass,gRNA rpsH,0.8152
same,"Growth, mean colony biomass (n=4)",gRNA rpsK,1.169
same,"Growth, mean colony biomass (n=4)",gRNA rpsL,1.132
same,"Growth, mean colony biomass (n=4)",gRNA rpsM,1.248
same,"Growth, mean colony biomass (n=4)",gRNA rpsR,1.124
same,"Growth, mean colony biomass (n=4)",gRNA rpsT,1.094
same,Growth represented as mean colony biomass,gRNA rsgA,0.8391
same,Growth represented as mean colony biomass,gRNA safA,0.9619
same,"Growth, mean colony biomass (n=4)",gRNA secA,1.102
same,Growth represented as mean colony biomass,gRNA secY,0.8296
same,Growth represented as mean colony biomass,gRNA serS,0.9537
same,Growth represented as mean colony biomass,gRNA ssb,0.8295
same,Growth represented as mean colony biomass,gRNA sucA,0.8419
same,"Growth, mean colony biomass (n=4)",gRNA suhB,1.09
same,Growth represented as mean colony biomass,gRNA tilS,0.9915
same,Growth represented as mean colony biomass,gRNA tonB,0.9615
same,Growth represented as mean colony biomass,gRNA trmD,0.9721
same,Growth represented as mean colony biomass,gRNA tsaB,0.9923
same,Growth represented as mean colony biomass,gRNA tsaD,0.966
same,"Growth, mean colony biomass (n=4)",gRNA tsaE,1.071
same,Growth represented as mean colony biomass,gRNA tsf,0.966
same,Growth represented as mean colony biomass,gRNA tusE,0.9697
same,Growth represented as mean colony biomass,gRNA tyrS,0.9746
same,Growth represented as mean colony biomass,gRNA ubiB,0.9956
same,Growth represented as mean colony biomass,gRNA ubiD,0.9717
same,"Growth, mean colony biomass (n=4)",gRNA waaA,1.073
same,Growth represented as mean colony biomass,gRNA ydaS,0.9729
same,Growth represented as mean colony biomass,gRNA ydcD,0.9759
same,Growth represented as mean colony biomass,gRNA ydhL,1
same,"Growth, mean colony biomass (n=4)",gRNA yedN,1.142
same,Growth represented as mean colony biomass,gRNA yejM,0.9938
same,Growth represented as mean colony biomass,gRNA yffS,0.9919
same,Growth represented as mean colony biomass,gRNA ygeF,0.966
same,"Growth, mean colony biomass (n=4)",gRNA ygeN,1.0865
same,Growth represented as mean colony biomass,gRNA yidC,0.8136
same,Growth represented as mean colony biomass,gRNA ymfE,0.9804
same,Growth represented as mean colony biomass,gRNA ymiB,0.9585
same,"Growth, mean colony biomass (n=4)",gRNA yqeL,1.316
same,Growth represented as mean colony biomass,gRNA yqgF,0.9701
same,"Growth, mean colony biomass (n=4)",gRNA zipA,1.803
